Laboratory results as given in patent US20010051167A1, “USE OF 17-ALPHA-ESTRADIOL FOR THE TREATMENT OF AGED OR SUNDAMAGED SKIN AND/OR SKIN ATROPHY” (priority 1997, published 2001).

Columns and labels:
[1] = test system: UV-photodamaged dorsal trunk skin of albino hairless mice (Skh-1); test: Dermal repair zone depth in UV-photodamaged hairless mouse skin after topical treatment; assay type: in vivo
Text: In one method, a deficit in connective tissue synthesis is induced by long-term exposure of mouse skin to ultraviolet (UV) radiation. […] The repair can be visualized as a region of new connective tissue which forms as a subepidermal band in the papillary dermis after topical retinoid treatment (Kligman LH, Chapter 10: Animal Models of Photodamage and Its Treatment, pp. 136-156, In: Photodamage, edited by B. A. Gilchrest, 1995, Blackwell Science, Cambridge, Mass.). The old malformed elastotic tissue, produced during UV exposure, is compressed by the retinoid-induced new connective tissue zone.
Connective tissue photodamage was induced in albino hairless mice (Skh-1) (six to eight weeks old) by exposure of dorsal trunk skin to UV from FS40 fluorescent tubes, three days per week (Monday, Wednesday, Friday) for ten weeks. The UV dose started with one minimal erythemal dose (MED) and was increased gradually to 4.5 MEDs by week 5 and then continued at 4.5 MEDs for five more weeks. At the beginning of week 11, mice were treated topically with 0.1 mL test material on the dorsal trunk skin, three times per week (Monday, Wednesday, Friday) for 6 to 10 weeks. At the end of treatment, dorsal skin was excised and placed in 10% buffered formalin. The specimens were embedded, sectioned and stained with Luna's aldehyde fuchsin for elastic fibers. The dermal repair zone, defined as the area from the epidermal-dermal junction to the top of the compressed elastotic material, was quantified by measuring the depth of the zones with an image analyzer. […]

[2] = test system: skin of albino hairless mice (Skh-1); test: Estrogen-induced thickening of the skin (double skin-fold thickness); assay type: in vivo, mouse; settings: Example 4, 3 days of topical treatment
Experimental: In the second method, topical estrogens increase the thickness of the entire skin by enhancing its water content. This is due to estrogen-stimulated increases in hyaluronic acid, which is a biomolecule that has an avid water binding capacity (Grosman et al. Acta Pharmacol. Toxicol., 1971, Vol. 30, pp. 458-464). Estrogen-induced thickening of the skin was assessed in albino hairless mice (Skh-1). The skin is topically treated for 3 days with 0.1 mL test material. The next day after the last dose, double skin-fold thickness is measured with an engineer's vernier calipers. This example compares the effects of 17-α-Estradiol and 17-β-Estradiol on skin thickening after 3 days of topical treatment.

[3] = test system: epidermis of albino hairless mice (Skh-1); test: Thickness of the epidermis after 10 weeks of topical treatment; assay type: in vivo, mouse
[4] = test system: markers of reproductive function; settings: humans; administered subcutaneously; cited from earlier work
[5] = Example 2, topical dose 0.1%, 10 Weeks
[6] = Example 3, topical dose 0.01%, 10 weeks

C[C@]12CCC3c4ccc(O)cc4CCC3C1CC[C@H]2O (stereo partly drawn) [17-α-estradiol]
Repair Zone Depth (μm) ± SE ([1]; Example 1, topical dose 0.50%, 10 weeks, 0.1 mL three times per week): 71.8 ± 3.0 μm | Repair Zone Depth (μm) ± SE ([1]; Example 2, topical dose 0.05%, 10 Weeks): 36.8 ± 2.4 μm | Repair Zone Depth (μm) ± SE [1, 5]: 44.3 ± 2.3 μm | Repair Zone Depth (μm) ± SE ([1]; Example 2, topical dose 0.5%, 6 Weeks): 44.6 ± 2.7 μm | Repair Zone Depth (μm) ± SE ([1]; Example 2, topical dose 0.5%, 10 Weeks): 51.6 ± 3.5 μm | Repair Zone Depth (μm) ± SE [1, 6]: 49.4 ± 3.7 μm | Repair Zone Depth (μm) ± SE ([1]; Example 3, topical dose 0.05%, 10 weeks): 34.3 ± 3.7 μm | Repair Zone Depth (μm) ± SE ([1]; Example 3, topical dose 0.5%, 10 weeks): 62.4 ± 4.2 μm | Skin-Fold Thickness (mm) ± SE ([2]; topical dose 0.01%): 1.16 ± 0.07 mm | Skin-Fold Thickness (mm) ± SE ([2]; topical dose 0.1%): 1.43 ± 0.06 mm | Skin-Fold Thickness (mm) ± SE ([2]; topical dose 0.5%): 1.52 ± 0.14 mm | Epidermal Thickness (μm) ± SE ([3]; Example 5, topical dose 0.05%): 29.3 ± 0.3 μm | Epidermal Thickness (μm) ± SE ([3]; Example 5, topical dose 0.1%): 37.3 ± 1.8 μm | Epidermal Thickness (μm) ± SE ([3]; Example 5, topical dose 0.5%): 42.9 ± 3.8 μm | biological activity on markers of reproductive function [4]: lacked biological activity

C[C@]12CC[C@@H]3c4ccc(O)cc4CC[C@H]3[C@@H]1CC[C@@H]2O [17-β-estradiol]
Repair Zone Depth (μm) ± SE ([1]; Example 1, topical dose 0.01%, 10 weeks, 0.1 mL three times per week): 57.4 ± 6.1 μm | Repair Zone Depth (μm) ± SE ([1]; Example 2, topical dose 0.1%, 6 Weeks): 46.3 ± 0.9 μm | Repair Zone Depth (μm) ± SE [1, 5]: 38.7 ± 2.5 μm | Repair Zone Depth (μm) ± SE ([1]; Example 3, topical dose 0.005%, 10 weeks): 45.2 ± 3.1 μm | Repair Zone Depth (μm) ± SE [1, 6]: 53.4 ± 2.1 μm | Repair Zone Depth (μm) ± SE ([1]; Example 3, topical dose 0.1%, 10 weeks): 68.2 ± 6.0 μm | Skin-Fold Thickness (mm) ± SE ([2]; topical dose 0.001%): 1.25 ± 0.08 mm | Skin-Fold Thickness (mm) ± SE ([2]; topical dose 0.01%): 1.62 ± 0.11 mm | Skin-Fold Thickness (mm) ± SE ([2]; topical dose 0.1%): 1.5 ± 0.13 mm | Epidermal Thickness (μm) ± SE ([3]; Example 5, topical dose 0.005%): 32.0 ± 1.2 μm | Epidermal Thickness (μm) ± SE ([3]; Example 5, topical dose 0.01%): 28.3 ± 1.8 μm | Epidermal Thickness (μm) ± SE ([3]; Example 5, topical dose 0.1%): 48.1 ± 2.9 μm

CC1=C(/C=C/C(C)=C/C=C/C(C)=C/C(=O)O)C(C)(C)CCC1 [All-trans-retinoic acid]
Repair Zone Depth (μm) ± SE ([1]; Example 1, topical dose 0.03%, 10 weeks, 0.1 mL three times per week): 72.0 ± 2.6 μm | Repair Zone Depth (μm) ± SE ([1]; Example 2, topical dose 0.03%, 6 Weeks): 44.5 ± 3.9 μm | Repair Zone Depth (μm) ± SE ([1]; Example 2, topical dose 0.03%, 10 Weeks): 59.0 ± 2.3 μm | Repair Zone Depth (μm) ± SE ([1]; Example 3, topical dose 0.03%, 10 weeks): 72.0 ± 3.3 μm | Epidermal Thickness (μm) ± SE ([3]; Example 5, topical dose 0.03%): 52.8 ± 3.6 μm
